Structures are written as SMILES. Some results are limits rather than exact numbers.

This experiment is described as follows: Inhibition of human erythrocyte 20S proteasome assessed as reduction in chymotrypsin-like activity pre-incubated for 10 mins before addition of Suc-Leu-Leu-Val-Tyr-MCA fluorogenic substrate by fluorescence based assay.
With `CC1(C)CCC[C@]2(C)[C@H]3CC[C@]4(C)Oc5ccc(O)cc5C[C@H]4[C@]3(C)CC[C@@H]12` [Strongylophorin-22], the IC50 was more than 100 µM.

As for `CCO[C@H]1OC[C@]23CCC[C@@]1(C)C2CC[C@]1(C)C3CC[C@]2(C)Oc3ccc(O)cc3CC12` (some centres undefined), the IC50 amounted to 9.3 µM.

Turning to `C[C@@]12CC[C@@H]3[C@]4(CCC[C@]3(C)C(O)OC4)[C@H]1CC[C@](C)(O)[C@H]2Cc1cc(O)ccc1O` (some centres undefined), the IC50 came to 2.1 µM.

Consider `CC(=O)[C@@]1(C)CCC[C@]2(C)[C@H]3CC[C@]4(C)Oc5ccc(O)cc5C[C@H]4[C@]3(C)CC[C@H]21` [strongylophorine-4], for which the IC50 turned out to be 19 µM.

For `CO[C@H]1OC[C@]23CCC[C@@]1(C)C2CC[C@]1(C)C3CC[C@]2(C)Oc3ccc(O)cc3CC12` (some centres undefined), the IC50 is 6.6 µM. The figure for `C[C@@]12CC[C@@H]3[C@]4(CCC[C@@]3(C)C(=O)OC4)[C@H]1CC[C@]1(C)Oc3ccc(O)cc3C[C@@H]21` [strongylophorine-2] is more than 100 µM. The figure for `C[C@]12CCC[C@](C)(C(=O)O)[C@@H]1CC[C@]1(C)[C@@H]2CC[C@]2(C)Oc3ccc(O)cc3C[C@@H]12` [Strongylophorin-3] is 9.5 µM; for `C[C@@]12CC[C@@H]3[C@]4(CCC[C@]3(C)C(O)OC4)[C@H]1CC[C@]1(C)Oc3ccc(O)cc3C[C@@H]21` (some centres undefined) it is 3.6 µM. The figure for `C[C@@]12CC[C@@H]3[C@]4(CCC[C@]3(C)C(=O)OC4)[C@H]1CC[C@](C)(O)[C@H]2Cc1cc(O)ccc1O` [strongylophorine-8] is 8.4 µM.
